# From patent US9179674B2, “Macrocyclic picolinamide compounds with fungicidal activity” (DOW AGROSCIENCES LLC, priority 2013, dated 2015)
# Where two headings read alike, the source gives them in different places.
# Experiments:
# Puccinia triticina = assay: Wheat Brown Rust fungicidal activity (PUCCRT); assay type: in vivo; details: Puccinia triticina; for pest or weed control at 100 ppm: rate 100 ppm; for pest or weed control at 121.5 g/ha: rate 121.5 g/H
# Description: Technical grades of materials were dissolved in acetone, which were then mixed with nine volumes of water containing 110 ppm Triton X-100. The fungicide solutions were applied onto wheat seedlings using an automated booth sprayer to run-off. All sprayed plants were allowed to air dry prior to further handling. All fungicides were evaluated using the aforementioned method for their activity vs. all target diseases. Wheat leaf blotch and brown rust activity were also evaluated using track spray applications, in which case the fungicides were formulated as EC formulations, containing 0.1% Trycol 5941 in the spray solutions. Wheat plants (variety Yuma) were grown from seed in a greenhouse in 50% mineral soil/50% soil-less Metro mix until the first leaf was fully emerged, with 7-10 seedlings per pot. These plants were inoculated with an aqueous spore suspension of Septoria tritici either prior to or after fungicide treatments. After inoculation the plants were kept in 100% relative humidity (one day in a dark dew chamber followed by two to three days in a lighted dew chamber at 20° C.) to permit spores to germinate and infect the leaf. The plants were then transferred to a greenhouse set at 20° C. for disease to develop. When disease symptoms were fully expressed on the 1st leaves of untreated plants, infection levels were assessed on a scale of 0 to 100 percent disease severity. Percent disease control was calculated using the ratio of disease severity on treated plants relative to untreated plants. Evaluation of Fungicidal Activity: Wheat Brown Rust (Puccinia triticina; Synonym: Puccinia recondite f sp. tritici; Bayer code PUCCRT) Wheat plants (variety Yuma) were grown from seed in a greenhouse in 50% mineral soil/50% soil-less Metro mix until the first leaf was fully emerged, with 7-10 seedlings per pot. These plants were inoculated with an aqueous spore suspension of Puccinia triticina either prior to or after fungicide treatments. After inoculation the plants were kept in a dark dew room at 22° C. with 100% relative humidity overnight to permit spores to germinate and infect the leaf. The plants were then transferred to a greenhouse set at 24° C. for disease to develop. Fungicide formulation, application and disease assessment followed the procedures as described in the Example A.
# [1] = tested on: Mycosphaerella graminicola; Anamorph: Septoria tritici; assay: Leaf Blotch of Wheat fungicidal activity (SEPTTR); assay type: in vivo; details: Zymoseptoria tritici; for pest or weed control at 100 ppm: rate 100 ppm; for pest or weed control at 121.5 g/ha: rate 121.5 g/H
# Description: Evaluation of Fungicidal Activity: Leaf Blotch of Wheat (Mycosphaerella graminicola; Anamorph: Septoria tritici; Bayer code […]) Technical grades of materials were dissolved in acetone, which were then mixed with nine volumes of water containing 110 ppm Triton X-100. The fungicide solutions were applied onto wheat seedlings using an automated booth sprayer to run-off. All sprayed plants were allowed to air dry prior to further handling. All fungicides were evaluated using the aforementioned method for their activity vs. all target diseases. Wheat leaf blotch and brown rust activity were also evaluated using track spray applications, in which case the fungicides were formulated as EC formulations, containing 0.1% Trycol 5941 in the spray solutions. Wheat plants (variety Yuma) were grown from seed in a greenhouse in 50% mineral soil/50% soil-less Metro mix until the first leaf was fully emerged, with 7-10 seedlings per pot. These plants were inoculated with an aqueous spore suspension of Septoria tritici either prior to or after fungicide treatments. After inoculation the plants were kept in 100% relative humidity (one day in a dark dew chamber followed by two to three days in a lighted dew chamber at 20° C.) to permit spores to germinate and infect the leaf. The plants were then transferred to a greenhouse set at 20° C. for disease to develop. When disease symptoms were fully expressed on the 1st leaves of untreated plants, infection levels were assessed on a scale of 0 to 100 percent disease severity. Percent disease control was calculated using the ratio of disease severity on treated plants relative to untreated plants.
# [2] = 24 h, 1 Day Protectant, read-out: Disease control PUCCRT 1DP
# [3] = 72 h, 3 Day Curative, read-out: Disease control PUCCRT 3DC
# [4] = 24 h, 1 Day Protectant, read-out: Disease control SEPTTR 1DP
# [5] = 72 h, 3 Day Curative, read-out: Disease control SEPTTR 3DC
SMILES,pest or weed control at 100 ppm (Puccinia triticina; [2]) [%],pest or weed control at 100 ppm (Puccinia triticina; [3]) [%],"pest or weed control at 100 ppm [1, 4] [%]","pest or weed control at 100 ppm [1, 5] [%]",pest or weed control at 121.5 g/ha (Puccinia triticina; [2]) [%],pest or weed control at 121.5 g/ha (Puccinia triticina; [3]) [%],"pest or weed control at 121.5 g/ha [1, 4] [%]","pest or weed control at 121.5 g/ha [1, 5] [%]"
CCCO[C@@H]1[C@@H](Cc2ccc(C(F)(F)F)cc2)COC[C@H](NC(=O)c2nccc(OC)c2OCOC(C)=O)C(=O)O[C@H]1C [Compound F101],80 to 100,80 to 100,80 to 100,80 to 100,,,,
COc1ccnc(C(=O)N[C@H]2COC[C@H](CCC(C)C)[C@@H](OC3CCCC3)[C@H](C)OC2=O)c1O [Compound F39],80 to 100,80 to 100,80 to 100,80 to 100,,,,
COc1ccnc(C(=O)N[C@H]2COC[C@H](CCc3ccccc3)[C@@H](Oc3ccc(C)cc3)[C@H](C)OC2=O)c1O [Compound F16],80 to 100,0 to 80,80 to 100,0 to 80,,,,
CCCCCO[C@@H]1[C@@H](CCc2ccccc2)COC[C@H](NC(=O)c2nccc(OC)c2OC(C)=O)C(=O)O[C@H]1C [Compound F55],80 to 100,80 to 100,80 to 100,80 to 100,,,,
COc1ccnc(C(=O)N[C@H]2COC[C@H](Cc3ccc(C)cc3)[C@@H](OC(=O)C3CC3)[C@H](C)OC2=O)c1OC(C)=O [Compound F61],80 to 100,80 to 100,80 to 100,80 to 100,80 to 100,0 to 80,80 to 100,0 to 80
COc1ccnc(C(=O)N[C@H]2COC[C@H](CCc3ccccc3)[C@@H](OC(=O)C3CC3)[C@H](C)OC2=O)c1OCOC(=O)C(C)C [Compound F118],80 to 100,80 to 100,80 to 100,80 to 100,80 to 100,80 to 100,80 to 100,80 to 100
COc1ccnc(C(=O)N[C@H]2COC[C@H](Cc3ccc(C)cc3)[C@@H](OCCCC(F)(F)F)[C@H](C)OC2=O)c1OC(C)=O [Compound F62],80 to 100,80 to 100,80 to 100,80 to 100,80 to 100,0 to 80,80 to 100,80 to 100
COc1ccnc(C(=O)N[C@H]2COC[C@H](CC(F)(F)F)[C@@H](OCC(C)C)[C@H](C)OC2=O)c1OCOC(C)=O [Compound F104],80 to 100,80 to 100,80 to 100,80 to 100,80 to 100,80 to 100,80 to 100,80 to 100
"CCCO[C@@H]1[C@@H](Cc2ccc(C(F)(F)F)cc2)COC[C@H](NC(=O)c2nccc(OC)c2OCOC(=O)COCC)C(=O)O[C@H]1C [Compound F120, ((4-methoxy-2-(((3S,7S,8R,9S)-9-methyl-2-oxo-8-propoxy-7-(4-(trifluoromethyl)benzyl)-1,5-dioxonan-3-yl)carbamoyl)pyridin-3-yl)oxy)methyl 2-ethoxyacetate]",80 to 100,0 to 80,80 to 100,80 to 100,,,,
COc1ccnc(C(=O)N[C@H]2COC[C@H](Cc3cc(F)c(F)c(F)c3)[C@@H](OCC(C)C)[C@H](C)OC2=O)c1O [Compound F40],0 to 80,,80 to 100,80 to 100,,,,
CCCO[C@@H]1[C@@H](Cc2ccc(C(F)(F)F)cc2)COC[C@H](NC(=O)c2nccc(OC)c2O)C(=O)O[C@H]1C [Compound F29],80 to 100,0 to 80,80 to 100,80 to 100,,,,
COc1ccnc(C(=O)N[C@H]2COC[C@H](Cc3cccc4ccccc34)[C@@H](OC3CCCC3)[C@H](C)OC2=O)c1OCOC(C)=O [Compound F86],80 to 100,80 to 100,80 to 100,80 to 100,,,,
COc1ccnc(C(=O)N[C@H]2COC[C@H](Cc3ccc(C)cc3)[C@@H](OC(=O)C3CC3)[C@H](C)OC2=O)c1OCOC(C)=O [Compound F97],80 to 100,80 to 100,80 to 100,0 to 80,80 to 100,80 to 100,80 to 100,80 to 100
COc1ccnc(C(=O)N[C@H]2COC[C@H](Cc3ccc(C(F)(F)F)cc3)[C@@H](OC3CCCC3)[C@H](C)OC2=O)c1OC(C)=O [Compound F66],80 to 100,0 to 80,80 to 100,0 to 80,80 to 100,0 to 80,80 to 100,0 to 80
COc1ccnc(C(=O)N[C@H]2COC[C@H](Cc3ccc(C)cc3)[C@@H](OCCCC(F)(F)F)[C@H](C)OC2=O)c1O [Compound F23],80 to 100,0 to 80,80 to 100,0 to 80,,,,
COc1ccnc(C(=O)N[C@H]2COC[C@H](Cc3ccc(F)cc3)[C@@H](OC3CCCC3)[C@H](C)OC2=O)c1OCOC(C)=O [Compound F94],80 to 100,80 to 100,80 to 100,80 to 100,80 to 100,80 to 100,80 to 100,80 to 100
COc1ccnc(C(=O)N[C@H]2COC[C@H](CCC(C)C)[C@@H](OCC(C)C)[C@H](C)OC2=O)c1OC(C)=O [Compound F68],80 to 100,80 to 100,80 to 100,80 to 100,80 to 100,80 to 100,80 to 100,80 to 100
COc1ccnc(C(=O)N[C@H]2COC[C@H](Cc3ccc(F)cc3)[C@@H](Oc3ccccc3)[C@H](C)OC2=O)c1OC(C)=O [Compound F59],80 to 100,80 to 100,80 to 100,80 to 100,80 to 100,0 to 80,80 to 100,80 to 100
CCCCCO[C@@H]1[C@@H](Cc2ccc(C(F)(F)F)cc2)COC[C@H](NC(=O)c2nccc(OC)c2OCOC(C)=O)C(=O)O[C@H]1C [Compound F103],80 to 100,80 to 100,80 to 100,0 to 80,,,,
